Experimental data from patent US12653894B2, “Degradation of FAK or FAK and ALK by conjugation of FAK and ALK inhibitors with E3 ligase ligands and methods of use” (DANA-FARBER CANCER INSTITUTE, INC., priority 2018, dated 2026).
Entries after “also recorded” stand apart in the source; their conditions may differ. Like-named read-outs stand apart in the source and are kept apart here.

Assays:
[1] = target: T1, FAK (Homo sapiens, UniProt Q05397); test: FAK degradation by immunoblot in H3122 cells; type: cell-based; design: endogenous in cells; host or cells: H3122; details: 10 nM to 1000 nM, 16 hours (compound 10) or 24 hours (compounds 1, 9)
T1 sequence (Q05397 whole entry): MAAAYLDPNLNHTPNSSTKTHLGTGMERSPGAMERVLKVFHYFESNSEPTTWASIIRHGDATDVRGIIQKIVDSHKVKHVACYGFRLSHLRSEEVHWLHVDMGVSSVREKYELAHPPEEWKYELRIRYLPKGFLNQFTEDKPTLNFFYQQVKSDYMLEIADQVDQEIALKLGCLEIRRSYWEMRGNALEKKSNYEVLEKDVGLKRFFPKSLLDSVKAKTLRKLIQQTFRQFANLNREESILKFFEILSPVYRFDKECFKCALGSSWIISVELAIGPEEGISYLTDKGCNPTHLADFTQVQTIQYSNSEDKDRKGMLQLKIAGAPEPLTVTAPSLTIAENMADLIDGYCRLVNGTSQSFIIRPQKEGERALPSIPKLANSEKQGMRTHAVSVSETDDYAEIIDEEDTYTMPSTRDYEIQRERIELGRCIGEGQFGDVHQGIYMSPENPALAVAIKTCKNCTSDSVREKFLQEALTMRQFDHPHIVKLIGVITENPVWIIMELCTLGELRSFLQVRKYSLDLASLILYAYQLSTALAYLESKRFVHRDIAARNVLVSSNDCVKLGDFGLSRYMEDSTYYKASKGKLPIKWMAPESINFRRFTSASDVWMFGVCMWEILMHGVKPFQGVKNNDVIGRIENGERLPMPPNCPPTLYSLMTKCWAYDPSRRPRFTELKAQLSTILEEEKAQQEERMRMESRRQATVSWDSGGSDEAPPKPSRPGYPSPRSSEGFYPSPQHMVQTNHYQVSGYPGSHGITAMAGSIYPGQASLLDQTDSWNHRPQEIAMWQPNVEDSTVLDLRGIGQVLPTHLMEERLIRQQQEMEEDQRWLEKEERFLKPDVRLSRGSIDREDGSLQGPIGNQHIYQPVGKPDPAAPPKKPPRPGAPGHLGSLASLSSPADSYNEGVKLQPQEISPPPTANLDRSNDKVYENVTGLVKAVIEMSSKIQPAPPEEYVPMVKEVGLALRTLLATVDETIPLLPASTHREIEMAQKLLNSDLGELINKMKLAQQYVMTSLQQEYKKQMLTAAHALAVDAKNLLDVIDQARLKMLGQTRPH

[2] = target: T1, FAK; test: FAK degradation by immunoblot in PA-TU-8988T cells; type: cell-based; design: endogenous in cells; host or cells: PA-TU-8988T; details: for Degradation of FAK protein (in words): 0.1 nM to 1000 nM; for inhibition at 0.01 µM / inhibition at 0.1 µM: PaTu 8988t; for inhibition at 0.01 µM: read-out: Degradation at 10 nM; for inhibition at 0.1 µM: read-out: Degradation at 100 nM
Method: (§1) Immunoblotting for FAK was performed to evaluate changes in protein levels upon FAK degrader treatment. All samples were run with equal total protein content and immunoblotting was performed using antibodies that detect total FAK protein as well as GAPDH or α-Tubulin as a loading control. Fluorescently labelled infrared secondary antibodies that enable detection using an Odyssey® CLx Imager was employed to evaluate protein levels.
FAK degraders were evaluated in immunoblot assays to determine the effective dose required to achieve FAK protein loss. Immunoblots for FAK protein were normalized relative to the loading control and percent degradation was evaluated compared to DMSO treatment.

[3] = target: T2, ALK (Homo sapiens, UniProt Q9UM73); test: ALK degradation by immunoblot in H3122 cells; type: cell-based; design: endogenous in cells; host or cells: H3122; the other entry of the earlier key: EML4 (Q9HC35, Echinoderm microtubule-associated protein-like 4); details: 10 nM to 1000 nM, 16 hours (compound 10) or 24 hours (compounds 1, 9)
Target sequence in this assay (Q9UM73 with tags, fused parts or gaps): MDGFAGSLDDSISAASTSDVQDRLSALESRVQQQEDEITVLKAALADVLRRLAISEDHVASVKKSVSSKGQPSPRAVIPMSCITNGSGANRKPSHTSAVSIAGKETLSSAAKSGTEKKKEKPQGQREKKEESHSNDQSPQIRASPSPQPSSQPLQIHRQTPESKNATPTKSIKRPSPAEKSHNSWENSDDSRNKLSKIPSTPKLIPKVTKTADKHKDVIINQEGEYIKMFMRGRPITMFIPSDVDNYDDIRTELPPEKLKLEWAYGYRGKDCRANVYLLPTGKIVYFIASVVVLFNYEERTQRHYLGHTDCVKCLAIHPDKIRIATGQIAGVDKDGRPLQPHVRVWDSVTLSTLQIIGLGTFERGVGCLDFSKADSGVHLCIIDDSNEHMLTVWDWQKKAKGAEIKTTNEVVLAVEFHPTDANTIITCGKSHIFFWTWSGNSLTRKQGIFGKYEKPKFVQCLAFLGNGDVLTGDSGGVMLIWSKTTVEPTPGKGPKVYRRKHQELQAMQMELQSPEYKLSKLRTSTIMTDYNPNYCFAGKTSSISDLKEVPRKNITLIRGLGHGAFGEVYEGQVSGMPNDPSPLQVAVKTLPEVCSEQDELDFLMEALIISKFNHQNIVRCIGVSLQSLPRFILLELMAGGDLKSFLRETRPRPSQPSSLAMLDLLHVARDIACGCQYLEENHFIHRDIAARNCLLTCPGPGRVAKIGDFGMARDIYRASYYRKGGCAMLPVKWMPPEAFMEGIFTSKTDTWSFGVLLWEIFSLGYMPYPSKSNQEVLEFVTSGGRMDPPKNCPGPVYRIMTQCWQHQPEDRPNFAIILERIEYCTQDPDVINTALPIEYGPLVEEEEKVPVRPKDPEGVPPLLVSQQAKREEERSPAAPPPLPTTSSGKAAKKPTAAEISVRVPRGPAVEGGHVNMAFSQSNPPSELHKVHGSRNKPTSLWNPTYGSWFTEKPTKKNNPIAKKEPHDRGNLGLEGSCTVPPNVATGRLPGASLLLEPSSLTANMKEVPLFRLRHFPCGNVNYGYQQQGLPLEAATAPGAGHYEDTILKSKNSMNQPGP
Target sequence in this assay (Q96SW2 whole entry partner): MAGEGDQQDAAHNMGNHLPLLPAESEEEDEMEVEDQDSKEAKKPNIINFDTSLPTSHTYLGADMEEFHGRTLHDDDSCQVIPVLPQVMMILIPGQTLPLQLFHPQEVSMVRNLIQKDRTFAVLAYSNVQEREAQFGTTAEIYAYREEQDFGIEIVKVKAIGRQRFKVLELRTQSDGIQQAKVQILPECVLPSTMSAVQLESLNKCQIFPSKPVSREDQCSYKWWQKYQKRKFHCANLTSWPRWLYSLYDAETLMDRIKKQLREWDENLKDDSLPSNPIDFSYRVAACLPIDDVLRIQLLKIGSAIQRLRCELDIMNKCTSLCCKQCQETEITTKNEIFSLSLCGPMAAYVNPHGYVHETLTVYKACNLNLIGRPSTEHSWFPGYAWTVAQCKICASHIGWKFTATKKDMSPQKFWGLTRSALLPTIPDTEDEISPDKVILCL

[4] = target: T1, FAK; test: In vivo FAK degradation in PA-TU-8988T xenograft tumors; design: endogenous in cells; host or cells: PA-TU-8988T; details: nude mice, 10 to 50 mpk intraperitoneal, three consecutive days, 4 hours after final treatment
Method: (§2) Mice were treated for three consecutive days and assessments were performed 4 hours after the third and final treatment.
(§3) PA-TU-8988T cells were implanted into the flanks of nude mice. After tumors had formed, mice were treated with indicated FAK degraders for three consecutive days via intraperitoneal administration and sacrificed 4 hours after the third and final treatment. Tumors and livers were harvested and lysed in RIPA on ice for 60 minutes and lysates were clarified by centrifugation. Immunoblotting for FAK was performed to evaluate changes in protein levels upon FAK degrader administration. All samples were run with equal total protein content and immunoblotting was performed using antibodies that detect total FAK protein as well as α-Tubulin as a loading control. Fluorescently labelled infrared secondary antibodies that enable detection using an Odyssey® CLx Imager was employed to evaluate protein levels.

[5] = target: T3, FAK (Mus musculus, UniProt P34152); test: In vivo FAK degradation in mouse livers; details: nude mice, 10 to 50 mpk intraperitoneal, three consecutive days, 4 hours after final treatment
T3 construct: from tissue; host or cells: liver of nude mice
Method: as §2, §3

[6] = target: T1, FAK; test: In vitro kinase assay (Life Technologies), FAK; details: ATP concentration = Km, duplicate; read-out: Biochemical IC50 FAK
Method: (§4) In vitro kinase assays with inventive compound 13 and VS-4718 were performed by Life Technologies™ in duplicate at an ATP concentration=Km for each indicated kinase. The results are summarized in Table 2 and indicate that inventive compound 13 maintained potent FAK activity, with improved activity on ALK as compared to VS-4718.

[7] = target: T2, ALK; test: In vitro kinase assay (Life Technologies), ALK; design: purchased Life Technologies; details: ATP concentration = Km, duplicate; read-out: Biochemical IC50 ALK
Method: as §4
Target sequence in this assay (Q9UM73 19-1620): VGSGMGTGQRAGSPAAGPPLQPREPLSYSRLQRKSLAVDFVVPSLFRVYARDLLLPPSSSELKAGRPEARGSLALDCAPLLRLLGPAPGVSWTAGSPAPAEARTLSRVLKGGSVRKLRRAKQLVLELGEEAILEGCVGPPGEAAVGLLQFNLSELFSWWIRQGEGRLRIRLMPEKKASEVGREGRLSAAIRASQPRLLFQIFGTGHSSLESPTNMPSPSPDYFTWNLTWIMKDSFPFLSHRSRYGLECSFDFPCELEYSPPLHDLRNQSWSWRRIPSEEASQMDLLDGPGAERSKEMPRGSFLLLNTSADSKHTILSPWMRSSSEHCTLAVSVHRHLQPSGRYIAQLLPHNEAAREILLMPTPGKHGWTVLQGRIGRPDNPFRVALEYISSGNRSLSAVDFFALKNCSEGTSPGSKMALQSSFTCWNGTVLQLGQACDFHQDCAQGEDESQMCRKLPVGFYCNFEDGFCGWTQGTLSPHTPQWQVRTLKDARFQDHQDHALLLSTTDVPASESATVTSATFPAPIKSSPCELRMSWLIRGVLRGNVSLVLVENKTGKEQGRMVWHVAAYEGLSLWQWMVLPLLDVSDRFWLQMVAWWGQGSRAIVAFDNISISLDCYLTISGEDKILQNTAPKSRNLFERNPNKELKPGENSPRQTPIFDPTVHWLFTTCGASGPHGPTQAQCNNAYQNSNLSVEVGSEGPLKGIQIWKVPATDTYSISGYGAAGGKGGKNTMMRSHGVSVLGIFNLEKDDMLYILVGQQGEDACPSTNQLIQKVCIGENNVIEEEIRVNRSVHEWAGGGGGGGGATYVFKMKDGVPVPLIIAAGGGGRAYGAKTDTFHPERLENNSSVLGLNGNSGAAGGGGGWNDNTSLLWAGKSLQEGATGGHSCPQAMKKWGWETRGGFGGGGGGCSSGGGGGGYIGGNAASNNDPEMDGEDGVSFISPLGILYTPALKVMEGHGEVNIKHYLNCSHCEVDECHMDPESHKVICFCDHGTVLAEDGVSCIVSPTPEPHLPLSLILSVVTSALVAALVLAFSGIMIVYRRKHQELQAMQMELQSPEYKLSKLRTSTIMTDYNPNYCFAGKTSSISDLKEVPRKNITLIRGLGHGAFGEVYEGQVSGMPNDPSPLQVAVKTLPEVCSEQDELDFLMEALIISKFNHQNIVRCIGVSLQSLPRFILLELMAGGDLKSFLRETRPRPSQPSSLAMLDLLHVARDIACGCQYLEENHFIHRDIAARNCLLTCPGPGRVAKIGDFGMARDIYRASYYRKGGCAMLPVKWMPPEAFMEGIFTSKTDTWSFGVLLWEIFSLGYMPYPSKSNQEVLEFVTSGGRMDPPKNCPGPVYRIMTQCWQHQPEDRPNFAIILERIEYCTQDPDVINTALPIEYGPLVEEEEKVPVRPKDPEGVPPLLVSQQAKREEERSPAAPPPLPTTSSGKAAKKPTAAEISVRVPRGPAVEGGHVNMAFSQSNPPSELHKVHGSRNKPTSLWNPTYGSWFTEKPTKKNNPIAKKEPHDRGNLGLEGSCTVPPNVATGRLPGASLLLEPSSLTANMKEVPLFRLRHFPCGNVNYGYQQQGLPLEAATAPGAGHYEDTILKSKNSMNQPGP

[8] = test system: kinome; test: KINOMEscan competition binding assays; details: 1000 nM, compared to VS-4718
Method: KINOMEscan® competition binding assays with inventive compound 13 and VS-4718 were performed by DiscovrX at 1000 nM. […] Additionally, despite the observed activity of compound 13 on ALK, degradation of ALK with compound 9 was not observed (FIG. 6B).

[9] = target: T1, FAK; test: Rescue of compound 9-induced FAK degradation in PA-TU-8988T cells after pre-treatment; type: cell-based; design: endogenous in cells; host or cells: PA-TU-8988T; details: pre-treatment 2 hours (0.5 μM carfilzomib, 1.0 μM MLN4924, 10 μM lenalidomide, 10 μM compound 13), then 10 nM compound 9 for 4 hours
Method: as §1, with “PA-TU-8988T cells were treated with FAK degraders or indicated inhibitors for four hours at the indicated doses. After four hours, PA-TU-8988T cells were lysed in radioimmunoprecipitation assay (RIPA) buffer (Thermo Scientific™) on ice for 60 minutes and lysates were clarified by centrifugation. Immunoblotting” for “Immunoblotting”

[10] = PA-TU-8988T cells, 4 hours, immunoblot
[11] = total FAK protein, PA-TU-8988T cells, 10 nM, 4 hours, vs DMSO
[12] = total FAK protein, PA-TU-8988T cells, 100 nM, 4 hours, vs DMSO

CNC(=O)c1ccccc1Nc1cc(Nc2ccc(N3CCN(CCCCCCNC(=O)COc4cccc5c4C(=O)N(C4CCC(=O)NC4=O)C5=O)CC3)cc2OC)ncc1C(F)(F)F (stereo not drawn) [Compound 1, 2-((2-((4-(4-(6-(2-((2-(2,6-dioxopiperidin-3-yl)-1,3-dioxoisoindolin-4-yl)oxy)acetamido)hexyl)piperazin-1-yl)-2-methoxyphenyl)amino)-5-(trifluoromethyl)pyridin-4-yl)amino)-N-methylbenzamide]
Degradation of FAK protein in H3122 cells (in words) [1]: pronounced degradation of FAK protein
Degradation of FAK protein (in words) [2, 10]: rapid and pronounced degradation of FAK protein
Concentration at which degradation of FAK protein is evident [2, 10]: 1 nM
Concentration of maximal degradation of FAK protein [2, 10]: 10 nM
inhibition at 0.01 µM [2, 11]: 85 to 100%
inhibition at 0.1 µM [2, 12]: 85 to 100%

CS(=O)(=O)c1cccc(CNc2nc(Nc3ccc(C(=O)N4CCN(CCCCCNC(=O)COc5cccc6c5C(=O)N(C5CCC(=O)NC5=O)C6=O)CC4)cc3)ncc2C(F)(F)F)c1 (stereo not drawn) [Compound 8, 2-((2-(2,6-dioxopiperidin-3-yl)-1,3-dioxoisoindolin-4-yl)oxy)-N-(5-(4-(4-((4-((3-(methylsulfonyl)benzyl)amino)-5-(trifluoromethyl)pyrimidin-2-yl)amino)benzoyl)piperazin-1-yl)pentyl)acetamide]
Concentration giving modest degradation of FAK protein [2, 10]: 10 nM
Concentration of maximal degradation of FAK protein [2, 10]: 100 nM
inhibition at 0.01 µM ([2]; 4 h): 0 to 24%
inhibition at 0.1 µM ([2]; 4 h): 25 to 49%

CNC(=O)c1ccccc1Nc1cc(Nc2cc(C)c(C3CCN(CCCCCCNC(=O)COc4cccc5c4C(=O)N(C4CCC(=O)NC4=O)C5=O)CC3)cc2OC(C)C)ncc1C(F)(F)F (stereo not drawn) [Compound 9, 2-((2-((4-(1-(6-(2-((2-(2,6-dioxopiperidin-3-yl)-1,3-dioxoisoindolin-4-yl)oxy)acetamido)hexyl)piperidin-4-yl)-2-isopropoxy-5-methylphenyl)amino)-5-(trifluoromethyl)pyridin-4-yl)amino)-N-methylbenzamide]
Degradation of FAK protein in H3122 cells (in words) [1]: pronounced degradation of FAK protein
Degradation of ALK protein in H3122 cells (in words) [3]: do not show degradation of ALK; also recorded: not observed
Degradation of FAK protein in PA-TU-8988T xenograft tumors [4]: pronounced degradation of FAK protein
Degradation of FAK protein in mouse livers [5]: pronounced degradation of FAK protein
Degradation of FAK protein (in words) [2, 10]: rapid and pronounced degradation of FAK protein
inhibition at 0.01 µM [2, 11]: 85 to 100%
inhibition at 0.1 µM [2, 12]: 85 to 100%

CNC(=O)c1ccccc1Nc1nc(Nc2cc(C)c(C3CCN(CCCCCCNC(=O)COc4cccc5c4C(=O)N(C4CCC(=O)NC4=O)C5=O)CC3)cc2OC(C)C)ncc1C(F)(F)F (stereo not drawn) [Compound 10, 2-((2-((4-(1-(6-(2-((2-(2,6-dioxopiperidin-3-yl)-1,3-dioxoisoindolin-4-yl)oxy)acetamido)hexyl)piperidin-4-yl)-2-isopropoxy-5-methylphenyl)amino)-5-(trifluoromethyl)pyrimidin-4-yl)amino)-N-methylbenzamide]
Degradation of FAK protein in H3122 cells (in words) [1]: pronounced degradation of FAK protein
Degradation of ALK protein in H3122 cells (in words) [3]: degradation of ALK protein

CNC(=O)c1ccccc1Nc1cc(Nc2cc(C)c(C3CCNCC3)cc2OC(C)C)ncc1C(F)(F)F [Compound 13]
IC50 [6]: 21 nM
IC50 [7]: 26.3 nM
Kinome-wide selectivity [8]: improved kinome-wide selectivity
Rescue of FAK degradation induced by compound 9 [9]: rescued the degradation induced by compound 9
Degradation of FAK protein (in words) [2, 10]: did not induce degradation of FAK protein
inhibition at 0.01 µM [2, 11]: 0 to 24%
inhibition at 0.1 µM [2, 12]: 0 to 24%

NS(=O)(=O)OC[C@@H]1C[C@@H](n2ccc3c(N[C@H]4CCc5ccccc54)ncnc32)C[C@@H]1O [MLN4924]
Rescue of FAK degradation induced by compound 9 [9]: rescued the degradation induced by compound 9

CNC(=O)c1ccccc1Nc1cc(Nc2ccc(N3CCOCC3)cc2OC)ncc1C(F)(F)F [VS-4718, reference compound]
IC50 [6]: 20 nM
IC50 [7]: 41.1 nM
Degradation of FAK protein (in words) [2, 10]: did not induce degradation of FAK protein

CC(C)C[C@H](NC(=O)[C@H](CCc1ccccc1)NC(=O)CN1CCOCC1)C(=O)N[C@@H](Cc1ccccc1)C(=O)N[C@@H](CC(C)C)C(=O)[C@@]1(C)CO1 [carfilzomib]
Rescue of FAK degradation induced by compound 9 [9]: rescued the degradation induced by compound 9

Nc1cccc2c1CN(C1CCC(=O)NC1=O)C2=O (stereo not drawn) [lenalidomide]
Rescue of FAK degradation induced by compound 9 [9]: rescued the degradation induced by compound 9

PF-573228 [reference compound]
Degradation of FAK protein (in words) [2, 10]: did not induce degradation of FAK protein
